How the values were obtained:
Experiment in all cases: relative viability (nuclei count vs DMSO), 5 days (fraction); higher = more cells survive
[1] = compound: CCC1=CN=CN=C1N2CCN(CC2)CC3=NC4=C(N3)C=C(C=C4)C(F)(F)F + CCNC(=O)c1noc(-c2cc(C(C)C)c(O)cc2O)c1-c1ccc(CN2CCOCC2)cc1 [Luminespib] (partner 0.01 µM)
Procedure, shortened: (§1)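 For relative viability, nuclei counts in treated wells were divided by those in vehicle wells. Lung cancer cell lines had been pin-tool dosed in 1536-well plates the day after seeding and cultured for 5 days, then fixed and stained in one step (final 0.05% Triton X-100, 1% formaldehyde, 1 ug/ml Hoechst) and imaged at 4×. Doses were one drug alone or a fixed anchor-drug dose plus five library-drug doses (not always all listed) in √10 steps, and values are duplicate-plate medians.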

[2] = compound: CCn1c(-c2nonc2N)nc2cnc(Oc3cccc(NC(=O)c4ccc(OCCN5CCOCC5)cc4)c3)cc21 + Cc1cc(Nc2cc(N3CCN(C)CC3)nc(Sc3ccc(NC(=O)C4CC4)cc3)n2)n[nH]1 [Tozasertib] (partner 0.1 µM)
Procedure, shortened: as §1

[3] = compound: CCn1c(-c2nonc2N)nc2cnc(Oc3cccc(NC(=O)c4ccc(OCCN5CCOCC5)cc4)c3)cc21 + N=C(N)NC(=N)NCCc1ccccc1 [Phenformin] (partner 250 µM)
Procedure, shortened: as §1

[4] = compound: CCn1c(-c2nonc2N)nc2cnc(Oc3cccc(NC(=O)c4ccc(OCCN5CCOCC5)cc4)c3)cc21 + NC(=O)Nc1cc(-c2cccc(F)c2)sc1C(=O)N[C@H]1CCCNC1 [AZD7762] (partner 0.2 µM)
Procedure, shortened: as §1

Cell Line | relative viability ([1]; first compound 0.04 µM) | relative viability ([1]; first compound 0.1265 µM) | relative viability ([1]; first compound 0.4 µM) | relative viability ([1]; first compound 1.265 µM) | relative viability ([1]; first compound 4 µM) | relative viability ([2]; first compound 0.04 µM) | relative viability ([2]; first compound 0.1265 µM) | relative viability ([2]; first compound 0.4 µM) | relative viability ([2]; first compound 1.265 µM) | relative viability ([2]; first compound 4 µM) | relative viability ([3]; first compound 0.04 µM) | relative viability ([3]; first compound 0.1265 µM) | relative viability ([3]; first compound 0.4 µM) | relative viability ([3]; first compound 1.265 µM) | relative viability ([3]; first compound 4 µM) | relative viability ([4]; first compound 0.04 µM) | relative viability ([4]; first compound 0.1265 µM) | relative viability ([4]; first compound 0.4 µM) | relative viability ([4]; first compound 1.265 µM) | relative viability ([4]; first compound 4 µM)
NCI-H1666 | 0.949 | 0.906 | 0.925 | 0.908 | 1.04 | 0.65 | 0.675 | 0.582 | 0.368 | 0.326 | 0.597 | 0.603 | 0.582 | 0.211 | 0.259 | 0.907 | 0.875 | 0.694 | 0.383 | 0.477
NCI-H1734 | 0.213 | 0.196 | 0.173 | 0.207 | 0.185 | 0.223 | 0.264 | 0.234 | 0.179 | 0.212 | 0.427 | 0.388 | 0.209 | 0.284 | 0.201 | 0.581 | 0.423 | 0.274 | 0.22 | 0.224
NCI-H1755 | 0.458 | 0.483 | 0.311 | 0.338 | 0.308 | 0.527 | 0.58 | 0.534 | 0.416 | 0.349 | 0.565 | 0.508 | 0.301 | 0.304 | 0.332 | 0.437 | 0.4 | 0.291 | 0.243 | 0.31
NCI-H1793 | 0.152 | 0.311 | 0.171 |  | 0.165 | 0.332 | 0.473 | 0.341 | 0.307 | 0.293 | 0.459 | 0.464 | 0.253 | 0.212 | 0.168 | 0.483 | 0.284 | 0.276 | 0.179 | 0.157
NCI-H1915 | 0.699 | 0.827 | 0.75 | 0.639 | 0.688 | 0.499 | 0.457 | 0.417 | 0.396 | 0.406 | 0.38 | 0.355 | 0.285 | 0.188 | 0.169 | 0.726 | 0.569 | 0.467 | 0.251 | 0.201
NCI-H1944 | 0.993 | 0.677 | 0.688 | 0.513 | 0.573 | 0.248 | 0.279 | 0.273 | 0.228 | 0.213 | 0.192 | 0.161 | 0.109 | 0.111 | 0.102 | 0.5 | 0.524 | 0.297 | 0.249 | 0.202
NCI-H1975 | 0.283 | 0.302 | 0.176 | 0.199 | 0.205 | 0.661 | 0.549 | 0.491 | 0.121 | 0.0969 | 0.343 | 0.277 | 0.208 | 0.186 | 0.168 | 0.597 | 0.471 | 0.374 | 0.201 | 0.214
NCI-H1993 | 0.852 | 0.802 | 0.836 | 0.772 | 0.816 | 0.634 | 0.705 | 0.502 | 0.501 | 0.455 | 0.66 | 0.562 | 0.546 | 0.565 | 0.508 | 0.763 | 0.701 | 0.598 | 0.742 | 0.742
NCI-H2085 | 0.442 | 0.481 | 0.421 | 0.387 | 0.356 | 0.961 | 0.8 | 0.733 | 0.633 | 0.538 | 0.787 | 0.676 | 0.596 | 0.551 | 0.559 | 1.09 | 0.924 | 0.927 | 0.634 | 0.787
NCI-H2087 | 0.164 | 0.227 | 0.162 | 0.142 | 0.142 | 0.252 | 0.243 | 0.218 | 0.152 | 0.142 | 0.598 | 0.458 | 0.474 | 0.432 | 0.372 | 1.45 | 1.11 | 1.13 | 0.845 | 0.867
NCI-H2126 | 0.847 | 0.89 | 0.931 | 0.773 | 0.922 | 0.898 | 0.849 | 0.861 |  | 0.378 | 0.646 | 0.571 | 0.392 |  | 0.405 | 1.07 | 0.998 | 0.832 | 0.924 | 0.839
NCI-H2170 | 0.577 | 0.6 | 0.712 | 0.748 | 0.823 | 0.743 | 0.651 | 0.786 | 0.553 | 0.515 | 0.468 | 0.417 | 0.388 | 0.355 | 0.315 | 0.763 | 0.74 | 0.749 | 0.577 | 0.478
NCI-H2342 | 0.645 | 0.756 | 0.619 | 0.52 | 0.494 | 0.599 | 0.561 | 0.463 | 0.437 | 0.425 | 0.71 | 0.585 | 0.581 | 0.449 | 0.66 | 0.572 | 0.551 | 0.361 | 0.422 | 0.459
NCI-H2347 | 0.346 | 0.415 | 0.372 | 0.228 | 0.44 | 0.634 | 0.637 | 0.674 | 0.45 | 0.395 | 0.521 | 0.784 | 0.465 | 0.312 | 0.403 | 0.951 | 0.766 | 0.641 | 0.378 | 0.413
NCI-H2405 | 0.684 | 0.704 | 0.657 |  | 0.794 | 0.874 | 0.794 | 0.345 | 0.224 | 0.24 | 0.379 | 0.236 | 0.0695 | 0.124 | 0.13 | 0.446 | 0.18 | 0.14 | 0.144 | 0.137
NCI-H3122 | 0.109 | 0.0823 | 0.0856 | 0.0704 | 0.0698 | 0.501 | 0.395 | 0.385 | 0.332 | 0.325 | 0.369 | 0.328 | 0.317 | 0.256 | 0.23 | 1.06 | 0.984 | 0.939 | 0.871 | 0.739
